Consider two compounds from PMC9105583, “Stereoselective Synthesis and Anticancer Activity of 2,6-Disubstituted trans-3-Methylidenetetrahydropyran-4-ones” (Materials, 2022).

Common to all, as to format: cell-based, human
The subject of experiment [1] is cleaved PARP in HL-60 cells. The experiment is described as follows: Cleaved PARP (Asp214) detection, flow cytometry. Particulars: compound at 2IC50 concentration, 24 h; control 0.7 ± 0.13%. The method, then:
(§1) Analysis of apoptosis, DNA damage and cell cycle
(§2) Apoptosis, DNA damage, proliferation and cell cycle kinetics were investigated using the Apoptosis, DNA Damage and Cell Proliferation Kit (BD Biosciences, San Jose, CA, USA) according to the manufacturer’s protocol. Briefly, HL-60 cells (2.0 × 10^5 cells/mL) were seeded in 6-well plates and left to grow for 24 h. Then, the cells were treated with 13d or 13g at IC50 and 2IC50 concentrations. After 24 h incubation, the cells were treated with BrdU solution for 8 h. Then, the cells were collected by centrifugation, fixed and permeabilized. To expose the incorporated BrdU, the cells were incubated with DNase (300 µg/mL in PBS) for 1 h at 37 °C. Afterwards, the cells were stained with fluorescent antibodies, including Anti-BrdU, Anti-Cleaved PARP (Asp214) and Anti-H2AX (pS139) for 20 min at room temperature. Total DNA for cell cycle analysis was stained using DAPI solution (1 µg/mL in staining buffer). Finally, the cells were analyzed by flow cytometry using CytoFLEX (Beckman Coulter, Inc., Brea, CA, USA) and the data analysis was performed with Kaluza Analysis Software v2 (Beckam Coulter, Inc., Brea, CA. USA).
Another hallmark of apoptosis is cleavage of poly(ADP-ribose) polymerase 1 (PARP1) into 24 kDa and 89 kDa fragments executed by caspases 3 and 7. […]

Experiment [2] relates to HL-60 cells. Put plainly: BrdU incorporation (proliferation), flow cytometry. Particulars: 24 h, then BrdU 8 h. The method, then: as §1, §2
To examine the influences of the investigated compounds on HL-60 cell proliferation, cells were exposed to a thymidine analog, bromodeoxyuridine (BrdU), that incorporates into newly synthesized DNA during proliferation.

Experiment [3] relates to HL-60 cells. The experiment is described as follows: Annexin V / propidium iodide apoptosis assay, flow cytometry. Particulars: for early apoptotic cells (Annexin V-positive and PI-negative) / late apoptotic cells (Annexin V-positive and PI-positive): compound at 2IC50, 24 h; for early apoptotic cells (Annexin V-positive and PI-negative): control 3.3 ± 0.36%; for late apoptotic cells (Annexin V-positive and PI-positive): control 5.5 ± 1.02%; for change in the number of apoptotic cells: compound at IC50, 24 h. The method, then:
Apoptotic cells were detected using FITC Annexin V Apoptosis Detection Kit I (BD Biosciences, San Jose, CA, USA). HL-60 cells (2.0 × 10^5 cells/mL) seeded in 6-well plates and cultured overnight were treated with various concentrations of 13d or 13g for 24 h. Then, the cells were washed with PBS and resuspended in the binding buffer. After staining with FITC Annexin V and propidium iodide (15 min, room temperature) cells were analyzed by flow cytometry using CytoFlex and Kaluza Analysis Software v2 (Beckman Coulter Inc., Brea, CA, USA).
One of the typical features of apoptotic cell death is translocation of phosphatidylserine from the inside surface to the extracellular surface of the cell membrane, which can be detected with Annexin V [27]. Therefore, to examine the ability of the investigated compounds to induce apoptosis in HL-60 cells, we performed Annexin V and propidium iodide (PI) staining (Figure 5C and Figure 6C). In the control group, 90.3 ± 1.15% of HL-60 cells were healthy, 3.3 ± 0.36% were in early stage of apoptosis (Annexin V-positive and PI-negative) and 5.5 ± 1.02% were in late-stage apoptosis (Annaxin V-positive and PI-positive).

In experiment [4] the test system is HL-60 cells. The experiment is described as follows: Cell morphology by light microscope. Particulars: IC50 and 2IC50, 24 h. How it is done: HL-60 cells were treated with compound 13d or 13g at IC50 and 2IC50 for 24 h. Then, the cells were examined for morphological changes using a light microscope at 40x magnification and photographed.
HL-60 cells grow in suspension and usually have a roughly spherical shape.

The test system of another experiment is MCF-7 cells. The experiment is described as follows: MTT assay, metabolic activity (cytotoxicity). The following applies: Homo sapiens, MCF7, 48 h incubation, mean ± SEM. How it is done:
(§3) Metabolic activity by MTT assay
(§4) The MTT (3-([…])-2,5-diphenyl tetrazolium bromide) assay was performed to assess the cytotoxicity of the investigated compounds. Briefly, HL-60, MCF-7 and HUVEC cells were seeded in 24-well plates at density of 8 × 10^4/mL. After 24 h incubation, cells were treated with various concentrations of the compounds and incubated for another 24 h or 48 h. Then, the cells were incubated with MTT solution (100 µL; 5 mg/mL in PBS) for 1.5 h and centrifuged. The formazan product was dissolved in DMSO, and the absorption was measured using FlexStation 3 Multi-Mode Microplate Reader (Molecular Devices, LLC, San Jose, CA, USA) at 560 nm. Assays were performed twice in triplicate for each analog.
(§5) The cytotoxic activity of the obtained methylidenetetrahydropyran-4-ones was investigated in two cancer cell lines, human promyelocytic leukemia (HL-60) and breast cancer adenocarcinoma (MCF-7), and in healthy umbilical vein endothelial cells (HUVEC), for comparison. An anticancer drug, carboplatin, was used as a reference compound. Metabolic activity of the cells was assessed after 48 h incubation with various concentrations of the analogs (Table 6). Purity of all final compounds was determined on the basis of their ^1H NMR spectra (signal-to-noise ratio and presence of unidentified signals) and was at least 98%, in most cases even over 99%.
On the technique in general: Formazan colour is commonly taken as a measure of viable cells.

Experiment [5] concerns HL-60 cells. The experiment is described as follows: MTT assay, metabolic activity (cytotoxicity). The following applies: for IC50: MTT. The method, then: as §3, §4, §5
The next experiment concerns HUVEC cells. Put plainly: MTT assay, metabolic activity (cytotoxicity), normal cell line. The following applies: Homo sapiens, HUVEC, 48 h incubation, mean ± SEM. The method, then:
as §3, §4, §5

[6] abbreviates: compound at 2IC50 concentration.
The mark [7] stands for this setting: Homo sapiens, HL-60, 24 h, 24 h incubation, read-out: IC50 HL-60 after 24 h incubation.
[8] abbreviates: Homo sapiens, HL-60, 48 h, 48 h incubation, mean ± SEM, read-out: IC50 HL-60.

Each structure is given as a SMILES string. Like-named read-outs stand apart in the source and are kept apart here.

As a reminder, the IC50 is the concentration needed to halve the response being measured. With `C=C1C(=O)C[C@H](C(C)C)O[C@H]1C(C)C` (relative stereo) [Analog 13d, Trans-2,6-diisopropyl-3-methylidenetetrahydro-4H-pyran-4-one], in experiment [1], the “population of cells with cleaved PARP” value came out at 49.0 ± 1.61%. Besides, the BrdU-incorporating cell population amounted to 26.4 ± 6.9% in the experiment on HL-60 cells [2] (setting [6]) and 31.5 ± 1.65% in the experiment on HL-60 cells [2] (compound at IC50 concentration). The “early apoptotic cells (Annexin V-positive and PI-negative)” value in the experiment on HL-60 cells [3] stood at 13.0 ± 2.64%. For the same compound, the “late apoptotic cells (Annexin V-positive and PI-positive)” value in the experiment on HL-60 cells [3] is recorded as 24.6 ± 2.34%. Besides, the “change in the number of apoptotic cells” value in the experiment on HL-60 cells [3] is on record as “did not induce a significant change”. Moreover, in the experiment with HL-60 cells [4], the “morphological changes of the cells” value is “induced several morphological changes”. Further, the IC50 in the experiment on MCF-7 cells worked out at 14 ± 1 µM; in the experiment with HL-60 cells [5] (setting [7]), 15.7 ± 0.61 µM; with HL-60 cells [5] (setting [8]), 7.65 ± 0.05 µM; with HUVEC cells, 24.7 ± 0.65 µM. Besides, the “selectivity, inhibitory activity in HL-60 versus HUVEC cells (cancer/healthy cell IC50 ratio)” value in the experiment with HL-60 cells [5] (HL-60 compared to normal HUVEC cells, 48 h) is “over 3 fold”.
Regarding `C=C1C(=O)C[C@H](c2ccccc2)O[C@H]1C(C)C` (relative stereo) [Analog 13g, Trans-2-isopropyl-3-methylidene-6-phenyltetrahydro-4H-pyran-4-one], the “population of cells with cleaved PARP” value in experiment [1] was 13.5 ± 3.6%. The BrdU-incorporating cell population turned out to be 31.9 ± 6.02% in the experiment on HL-60 cells [2] (setting [6]) and 35.3 ± 1.23% in the experiment with HL-60 cells [2] (compound at IC50 concentration). Moreover, in the experiment with HL-60 cells [3], the “early apoptotic cells (Annexin V-positive and PI-negative)” value was found to be 8.7 ± 0.57%. For the same compound, in the experiment with HL-60 cells [3], the “late apoptotic cells (Annexin V-positive and PI-positive)” value worked out at 39.5 ± 1.16%. Further, the “change in the number of apoptotic cells” value in the experiment with HL-60 cells [3] is on record as “not effective”. The “morphological changes of the cells” value in the experiment on HL-60 cells [4] was “induced several morphological changes”. Besides, the IC50 in the experiment with MCF-7 cells is 8.63 ± 0.07 µM; in the experiment with HL-60 cells [5] (48 h incubation, mean ± SEM, read-out: IC50 HL-60) it was 3.69 ± 0.08 µM; in the experiment with HL-60 cells [5] (setting [7]) it was 6.49 ± 0.31 µM; with HL-60 cells [5] (setting [8]), less than 4 µM; in the experiment on HUVEC cells, 3.84 ± 0.01 µM.
